According to patent publication US10517952B2, “Nucleophile-triggered degradable materials and methods of making and using the same” (GEORGIA TECH RESEARCH CORPORATION, priority 2014, dated 2019):

Key:
Type in all cases: physicochemical
[1] = Degradation of neat PEG-OND hydrogels (inversion test, time-lapse photography)
Method: Degradation rates of the PEG-OND hydrogels in the absence of swelling buffer varied with temperature and with the identity of OND used to form the gel. […] In comparison, gels formed using 7b were stable for more than 60 hours at 37° C., and approximately 13 hours at 50° C.
Three 500 μL 3.5 wt % hydrogels were formed with bis-ONDs 7a and 7b, and bis-EONB 8, respectively, in 2 mL vials with caps. The sealed vials were incubated in an oil bath maintained at 50° C. The samples were periodically removed from heat and the vials were inverted to determine if the gel was still intact, or whether the sample was a free-flowing liquid, as described in the main text. The gel formed between 4-PEG-SH and bis-EONB 8 in FIG. 9 was removed from heat after 5 days, and stored at room temperature in a sealed vial. The hydrogel is still intact at the time of writing (5 days at 50° C. followed by >1 year at room temperature). The inversion test was routinely used in all stability experiments to verify hydrogel integrity during incubation.
In order to observe reverse gelation upon prolonged heating of neat hydrogels, time-lapse photography was carried out. Briefly, 600 μL hydrogels comprised of 3.5 wt % 4-PEG-SH+bis-OND/EONB (7a, 7b, and 8, respectively) in pH 7.4 100 mM potassium phosphate buffer containing 7% DMSO (v/v) were formed in glass culture tubes and allowed to set for 15 minutes. A glass bead (˜160 mg, stained with blue Sharpie-brand marker to improve visibility) was placed carefully on top of each gel, and a drop of silicon oil was added to prevent evaporation at the surface of the gels. The tubes were sealed with lab parafilm and incubated in a 50° C. oil bath. Photos were collected every 2 minutes for ˜22 hours using Chronolapse software (v.1.0.4) and a Creative Labs webcam. Photographs were compiled in chronological order using iMovie software, with each photo occupying one 0.1 s frame. The resulting video is available as S1 Video, mentioned above.

[2] = Calculation of hydrogel mesh size from equilibrium swelling data; conditions: for Average mesh size: average for equilibrium swelled hydrogels from linkers 7a, 7b and 8; for Calculated mesh size: equilibrium-swollen gels
Method: Using the calculated molecular weight between crosslinks, Mc, and the method previously described by Canal and Peppas, the hydrogel mesh size was calculated. First, the root-mean-square end-to-end distance of the polymer chains in the network, (r0^2)^1/2, was calculated as follows: (r0^2)^1/2=lCn^1/2n^1/2 (Equation S10) where l is the average bond length in the polymer (0.146 nm for PEG) and Cn is the characteristic ratio of the polymer (4.0 for PEG). The average number of bonds between crosslinks, n is calculated using the following equation:
[formula] where Mc is the average molecular weight between crosslinks, calculated as described in the previous section, and Mr is the molecular weight of the repeating unit for the PEG macromer (44 g/mol). Finally, the mesh size, ξ, is calculated using the following relationship: ξ=v2,s^−1/3(r0^2)^1/2 (Equation S12) where v2, is the partial volume of polymer in the equilibrium swollen hydrogel, and is calculated using the experimentally determined equilibrium weight swelling ratios.

[3] = Release of entrained cargo from PEG-OND hydrogels
Method: Finally, the diffusion of entrained, rather than covalently anchored, cargos of different sizes out of OND hydrogels of differing stabilities was measured. This was done with a small molecule (carboxyfluorescein), a globular protein (fluorescein-labeled bovine serum albumin, BSA), and a 30-nm protein nanoparticle (fluorescein-labeled bacteriophage Qb virus-like particle). The first and last species have no available thiol groups; the second was reacted with N-ethylmaleimide before gelation to cap cysteine-34 and avoid tethering of the protein cargo to the hydrogel network. Hydrogels derived from 4-PEG-SH and 7a, 7b, or 8 were formed in the presence of each cargo; the speed of this reaction made it highly unlikely that OND connectors were addressed by protein amine groups under these conditions.
Three sets of three 60 μL gels were prepared using linkers 7a, 7b, and 8, respectively. The first set contained 1 mM small molecule probe 5/6-carboxyfluorescein, while the second and third sets contained FITC labeled BSA and Qβ virus-like particle, respectively. The gels were allowed to set for 30 minutes at room temperature before dilution with 3 mL of pH 7.4 100 mM phosphate buffered saline. The samples were incubated at 37° C. and the increase in absorbance of the supernatant at 497 nm was monitored. The fraction of released dye was plotted against incubation time. Least-squares kinetic fitting to a first-order rate law was performed for release profiles obtained for carboxyfluorescein cargo, and for the release of BSA from non-degradable PEG-EONB (8) hydrogel (Solver plug-in, Microsoft Excel).

[4] = Gelation of 4-PEG-SH with OND linkers, gelation time by inversion test; conditions: neutral water, 17% DMSO, stoichiometric triethylamine added, room temperature
Method: PEG-OND hydrogels were prepared by mixing tetravalent thiol-terminated PEG (4-PEG-SH, Mw˜2,500 Da for each arm) at 3.5 weight percent and multivalent OND linkers at equimolar concentration of thiol and electrophile in phosphate buffer containing 7% DMSO by volume (FIG. 42). The reactions were mixed briefly and the gel was allowed to cure at temperature or 37° C. Gelation time was recorded as the point at which the sample no longer flowed upon inversion of the reaction vessel.
Trial gelations were performed by premixing a solution of linker 7a with four-armed thiol-terminated poly(ethylene glycol) (4-PEG-SH. Mn=10,000) in neutral water containing 17% DMSO by volume. The overall concentration of PEG macromer was varied from 0.4 wt % to 8.3 wt % while maintaining an equimolar ratio of thiol to electrophile. Under these conditions, no gels formed on standing at room temperature for five minutes.
Based on empirical observations made in these trials, subsequent gels were prepared at room temperature from 3.5 wt % 4-PEG-SH solutions in phosphate buffers containing 7% DMSO at equimolar concentrations of thiol and OND electrophile. Mixtures were mixed briefly with a vortex mixer, and the reaction vial was periodically tilted or inverted. Gelation time was recorded when the sample no longer flowed and was self-supporting. […] Gelation time at 37° C. was determined by pre-warming 4-PEG-SH macromer and OND stock solutions in a 37° C. water bath. Gel components were combined and mixed briefly by pipetting, and the sample was held in the water bath. Gelation time was determined by the inversion test, as described above.
The labeled protein solutions prepared as described in the previous section were diluted three-fold with pH 7.4 100 mM phosphate buffer and used to dissolve the 4-PEG-SH macromer at 3.76 wt %. This solution was used in an identical manner as pure 4-PEG-SH solution for the purpose of forming PEG-OND hydrogels (FIG. 45). All samples formed self-supporting hydrogels within 1 min after mixing, as determined by the inversion test.

Row | Gel stability by inversion test ([1]; neat gel, no swelling buffer, 4° C.) | Time gel is stable / collapses (inversion test) ([1]; neat gel, no swelling buffer, 37° C.) | Time gel is stable / collapses (inversion test) ([1]; neat gel, no swelling buffer, 50° C.) | Fraction of BSA tethered to the network / not freely diffusing from the gel ([3]; FITC-BSA with ˜0.4 accessible thiols per protein) | Release of entrained BSA from the gel compared with more stable matrices ([3]; N-ethylmaleimide-capped FITC-BSA, pH 7.4, 37° C.) | 4-PEG-SH concentration giving instantaneous gelation [4] | SMILES | Gel integrity on extended heating (inversion test) ([1]; neat gel, 50° C.) | Average mesh size [2] | Calculated mesh size [2] | Inversion test for hydrogel degradation (FIG. 1B) [1] | Long-term gel integrity ([1]; 5 days at 50° C. followed by >1 year at room temperature) | Gel stability by time-lapse photography, gel supporting a glass bead ([1]; neat gel, heating (50° C.)) | Release of entrained Qβ virus-like particles from the gel ([3]; pH 7.4, 37° C.)
1 | stable for more than two weeks | 12 h | ≤ 3 h | ~20% | markedly faster | > 2.5 wt % | COC(=O)C1=C(C(=O)OC)C2(CNC(=O)CCCC(=O)NCC34C=CC(O3)C(C(=O)OC)=C4C(=O)OC)C=CC1O2 [Linker 7a, Tetramethyl 1,1′-((glutaroylbis(azanediyl))bis(methylene))bis(7-oxabicyclo[2.2.1]hepta-2,5-diene-2,3-dicarboxylate)] | collapsed | 14.0±1.0 nm | 15.2 ± 0.9 nm |  |  |  | 
2 |  |  |  |  |  |  | COC(=O)C1=C(C(=O)OC)C2(CNC(=O)CCCC(=O)NCC34OC(C(C(=O)OC)=C3C(=O)OC)C3OC34)OC1C1OC12 (stereo not shown) [Linker 8, Tetramethyl 1,1′-((glutaroylbis(azanediyl))bis(methylene))bis(3,8-dioxatricyclo[3.2.1.0^2,4]oct-6-ene-6,7-dicarboxylate)] | remained intact | 14.0±1.0 nm | 14.0 ± 0.9 nm | stable indefinitely | still intact | remained intact | not released
